Measured values from the Kinase Knowledgebase extract (Sharma et al. 2016).

Each compound was assayed against PIK3CG (human) (UniProt P48736) (assay: Assessment of PIK3CG Kinase Activity).
PIK3CG (human), sequence (P48736 whole entry, looked up): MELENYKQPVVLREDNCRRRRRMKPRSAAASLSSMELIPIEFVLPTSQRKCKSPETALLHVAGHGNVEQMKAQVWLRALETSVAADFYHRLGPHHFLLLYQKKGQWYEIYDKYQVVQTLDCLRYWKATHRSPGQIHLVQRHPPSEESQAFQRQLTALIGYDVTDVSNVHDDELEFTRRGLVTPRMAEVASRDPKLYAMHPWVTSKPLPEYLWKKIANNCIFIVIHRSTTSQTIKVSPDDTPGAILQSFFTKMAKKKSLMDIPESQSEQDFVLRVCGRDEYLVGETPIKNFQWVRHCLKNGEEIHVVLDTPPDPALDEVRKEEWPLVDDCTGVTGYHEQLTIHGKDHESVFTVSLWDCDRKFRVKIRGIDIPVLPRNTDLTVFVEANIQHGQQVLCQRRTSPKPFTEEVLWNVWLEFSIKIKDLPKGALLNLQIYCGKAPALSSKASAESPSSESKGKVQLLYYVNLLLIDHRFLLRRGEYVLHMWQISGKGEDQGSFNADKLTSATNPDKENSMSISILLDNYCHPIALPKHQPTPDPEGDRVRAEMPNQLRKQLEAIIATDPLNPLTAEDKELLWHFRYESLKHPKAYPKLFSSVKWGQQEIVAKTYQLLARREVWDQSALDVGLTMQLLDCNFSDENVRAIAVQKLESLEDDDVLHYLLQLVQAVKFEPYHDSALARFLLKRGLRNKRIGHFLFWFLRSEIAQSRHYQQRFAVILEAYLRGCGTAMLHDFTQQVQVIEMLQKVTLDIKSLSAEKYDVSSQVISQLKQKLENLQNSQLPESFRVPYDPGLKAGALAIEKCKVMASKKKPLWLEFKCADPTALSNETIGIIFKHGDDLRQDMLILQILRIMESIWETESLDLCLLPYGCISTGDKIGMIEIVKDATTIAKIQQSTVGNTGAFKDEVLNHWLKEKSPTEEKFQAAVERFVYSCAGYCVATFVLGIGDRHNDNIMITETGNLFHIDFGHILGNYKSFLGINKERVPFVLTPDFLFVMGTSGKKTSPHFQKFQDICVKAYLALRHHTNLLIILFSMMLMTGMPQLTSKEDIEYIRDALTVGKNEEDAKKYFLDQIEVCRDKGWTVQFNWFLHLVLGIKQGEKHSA

| IC50 [nM] | SMILES |
| --- | --- |
| < 800 | CC(=O)Nc1nc2c(s1)-c1nc(-c3c(Cl)cccc3Cl)ncc1CC2 |
| < 800 | CC(=O)Nc1nc2c(s1)-c1c(cnn1-c1ccc(C(=O)N[C@H]3CC[C@H](N4CCN(c5ccccc5)CC4)CC3)cc1)CC2 |
| < 800 | CC(=O)Nc1nc2c(s1)-c1nc(C(C)(C)C)ncc1CC2 |
| < 800 | CC(=O)Nc1nc2c(s1)-c1c(cnn1-c1ccc(CCNC(=O)c3ccccc3)cc1)CC2 |
| < 800 | CC(=O)Nc1nc2c(s1)-c1c(cnn1-c1ccc(C(=O)N3CCC(NC(=O)c4ccccc4)CC3)cc1)CC2 |
| < 800 | COCc1nn(-c2ccc(C(=O)N[C@H]3CC[C@H](N4CCCC4)CC3)cc2Cl)c2c1CCc1nc(NC(C)=O)sc1-2 |
| < 800 | CC(=O)Nc1nc2c(s1)-c1nc(COc3ccccc3Cl)ncc1CC2 |
| < 800 | CC(=O)Nc1nc2c(s1)-c1c(c(-c3ccco3)nn1-c1ccccc1Cl)CC2 |
| < 800 | CC(=O)Nc1nc2c(s1)-c1c(cnn1-c1ccc(C(=O)NCc3ccncc3)cc1)CC2 |
| < 800 | CC(=O)Nc1nc2c(s1)-c1c(cnn1-c1ccc(C(=O)N[C@H]3CCc4nc(N)sc4C3)cc1)CC2 |
| < 800 | CC(=O)Nc1nc2c(s1)-c1nn(-c3ccc(C(=O)NC4CCN(C5CCCC5)CC4)cc3Cl)c(-c3ccco3)c1CC2 |
| < 800 | CC(=O)Nc1nc2c(s1)-c1c(c(C(C)C)nn1-c1ccccc1)CC2 |
| < 800 | CC(=O)Nc1nc2c(s1)-c1c(cnn1-c1ccc(C(=O)Nc3ccc(N4CCN(C)CC4)cc3)cc1)CC2 |
| < 800 | CC(=O)Nc1nc2c(s1)-c1c(c(C)nn1-c1ccccc1C(F)(F)F)CC2 |
| < 800 | CC(=O)Nc1nc2c(s1)-c1c(cnn1-c1ccc(C(=O)NC(C)(C)CN3CCOCC3)cc1)CC2 |
| < 800 | CC(=O)Nc1nc2c(s1)-c1c(cnn1-c1ccc(CC(=O)NCCN3CCCC3=O)cc1)CC2 |
| < 800 | CC(=O)Nc1nc2c(s1)-c1c(cnn1-c1ccc(C(=O)N[C@@H](CCc3ccccc3)C(N)=O)cc1Cl)CC2 |
| < 800 | CC(=O)Nc1nc2c(s1)-c1c(c(C(C)C)nn1-c1ccccc1Cl)CC2 |
